Results taken from patent publication US20230143604A1, “QW DOSING OF GIP RECEPTOR AGONIST PEPTIDE COMPOUNDS AND USES THEREOF” (TAKEDA PHARMACEUTICAL COMPANY LIMITED, priority 2020, published 2023).

Legend:
[1] = test system: C57BL/6J mice; test: Oral glucose tolerance test (OGTT); assay type: in vivo; details: 3 nmol/kg s.c., 24 hours before glucose loading
Protocol: An oral glucose tolerance test (OGTT) was carried out using C57BL/6J mice with a 50% dextrose solution dosed at 5 ml/kg. Testing concentrations of 0.1 nmol/kg, 0.3 nmmol/kg, 3 nmol/kg or 10 nmol/kg were selected depending on the peptide. Each peptide or a vehicle (control group) was subcutaneously administered 24 hours (unless shown otherwise) before glucose loading and the blood glucose was measured at 0, 15, 30, and 60 minutes after glucose dosing.
% inhibition=(1−(AUC cpd−AUC naïve/AUC veh−AUC naïve))×100.

[2] = Solubility in phosphate buffer pH 7.4
Method in brief: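 3 mg of peptide treated with 100 μL portions of 200 mM phosphate buffer pH 7.4, sonicating/vortexing up to 1 min, with further buffer added until fully dissolved. Solubility then quantified by HPLC.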

[3] = pH 7.4, aqueous buffer, pH 7.4 Phosphate Buffer - Solubility, 200 mM Phosphate buffer pH 7.4
[4] = pH 7.4, solubility in phosphate buffer at pH 7.4, 200 mM phosphate buffer pH 7.4

SMILES | Oral Glucose Tolerance Test Percent decrease in blood glucose AUC (%) over 60 mins [1] | solubility [2, 3] [mg/mL] | solubility [2, 4] [mg/mL]
CC[C@H](C)[C@H](NC(=O)[C@H](Cc1ccccc1)NC(=O)[C@@H](NC(=O)CNC(=O)[C@H](CCC(=O)O)NC(=O)C(C)(C)NC(=O)[C@H](Cc1ccc(O)cc1)NC)[C@@H](C)O)C(=O)N[C@@H](CO)C(=O)N[C@@H](CC(=O)O)C(=O)N[C@@H](Cc1ccc(O)cc1)C(=O)N[C@@H](CO)C(=O)N[C@H](C(=O)NC(C)(C)C(=O)N[C@@H](CCCCNC(=O)CNC(=O)CNC(=O)CNC(=O)CNC(=O)CNC(=O)CCCCCCCCCCCCCCCCC(=O)O)C(=O)N[C@@H](CC(=O)O)C(=O)N[C@@H](CCCNC(=N)N)C(=O)NC(C)(C)C(=O)N[C@@H](C)C(=O)N[C@@H](CCC(N)=O)C(=O)NC(C)(C)C(=O)N[C@@H](CC(=O)O)C(=O)N[C@@H](Cc1ccccc1)C(=O)N[C@H](C(=O)N[C@@H](CC(N)=O)C(=O)N[C@@H](Cc1c[nH]c2ccccc12)C(=O)N[C@@H](CC(C)C)C(=O)N[C@@H](CC(C)C)C(=O)N[C@@H](C)C(=O)N[C@@H](CCC(N)=O)C(=O)N[C@@H](CO)C(=O)N1CCC[C@H]1C(=O)N[C@@H](CO)C(=O)N[C@@H](CO)C(=O)NCC(=O)N[C@@H](C)C(=O)N1CCC[C@H]1C(=O)N1CCC[C@H]1C(=O)N1CCC[C@H]1C(=O)N[C@@H](CO)C(=O)O)C(C)C)[C@@H](C)CC [Compound 47] | 48% (3 nmol/kg) | ≥ 30 | ≥ 15
CC[C@H](C)[C@H](NC(=O)[C@H](CO)NC(=O)[C@H](Cc1ccc(O)cc1)NC(=O)[C@H](CC(=O)O)NC(=O)[C@H](CO)NC(=O)[C@@H](NC(=O)[C@H](Cc1ccccc1)NC(=O)[C@@H](NC(=O)CNC(=O)[C@H](CCC(=O)O)NC(=O)C(C)(C)NC(=O)[C@H](Cc1ccc(O)cc1)NC)[C@@H](C)O)[C@@H](C)CC)C(=O)N[C@@H](C)C(=O)N[C@@H](CC(C)C)C(=O)N[C@@H](CC(=O)O)C(=O)N[C@@H](CCCNC(=N)N)C(=O)N[C@@H](CCCCNC(=O)CNC(=O)CNC(=O)CNC(=O)CNC(=O)CNC(=O)CCCCCCCCCCCCCCCCC(=O)O)C(=O)N[C@@H](C)C(=O)N[C@@H](CCC(N)=O)C(=O)NC(C)(C)C(=O)N[C@@H](CC(=O)O)C(=O)N[C@@H](Cc1ccccc1)C(=O)N[C@H](C(=O)N[C@@H](CC(N)=O)C(=O)N[C@@H](Cc1c[nH]c2ccccc12)C(=O)N[C@@H](CC(C)C)C(=O)N[C@@H](CC(C)C)C(=O)N[C@@H](C)C(=O)N[C@@H](CCC(N)=O)C(=O)N[C@@H](CCCNC(=N)N)C(=O)N1CCC[C@H]1C(=O)N[C@@H](CO)C(=O)N[C@@H](CO)C(=O)NCC(=O)N[C@@H](C)C(=O)N1CCC[C@H]1C(=O)N1CCC[C@H]1C(=O)N1CCC[C@H]1C(=O)N[C@@H](CO)C(=O)O)C(C)C [Compound 51] | 50% (3 nmol/kg) | ≥ 30 | ≥ 15
CC[C@H](C)[C@H](NC(=O)[C@H](Cc1ccccc1)NC(=O)[C@@H](NC(=O)CNC(=O)[C@H](CCC(=O)O)NC(=O)C(C)(C)NC(=O)[C@H](Cc1ccc(O)cc1)NC)[C@@H](C)O)C(=O)N[C@@H](CO)C(=O)N[C@@H](CC(=O)O)C(=O)N[C@@H](Cc1ccc(O)cc1)C(=O)N[C@@H](CO)C(=O)N[C@H](C(=O)NC(C)(C)C(=O)N[C@@H](CCCCNC(=O)CNC(=O)CNC(=O)CNC(=O)CNC(=O)CNC(=O)CCCCCCCCCCCCCCCCC(=O)O)C(=O)N[C@@H](CC(=O)O)C(=O)N[C@@H](CCCNC(=N)N)C(=O)NC(C)(C)C(=O)N[C@@H](C)C(=O)N[C@@H](CCC(N)=O)C(=O)NC(C)(C)C(=O)N[C@@H](CC(=O)O)C(=O)N[C@@H](Cc1ccccc1)C(=O)N[C@H](C(=O)N[C@@H](CC(N)=O)C(=O)N[C@@H](Cc1c[nH]c2ccccc12)C(=O)N[C@@H](CC(C)C)C(=O)N[C@@H](CC(C)C)C(=O)N[C@@H](C)C(=O)N[C@@H](CCC(N)=O)C(=O)N[C@@H](CCCNC(=N)N)C(=O)N1CCC[C@H]1C(=O)N[C@@H](CO)C(=O)N[C@@H](CO)C(=O)NCC(=O)N[C@@H](C)C(=O)N1CCC[C@H]1C(=O)N1CCC[C@H]1C(=O)N1CCC[C@H]1C(=O)N[C@@H](CO)C(=O)O)C(C)C)[C@@H](C)CC [Compound 54] | 43% (3 nmol/kg) | ≥ 30 | ≥ 15
